This is an account of results in patent US10544156B2, “Hemi-synthetic trilobine analogs for use as a drug” (PIERRE FABRE MEDICAMENT, priority 2015, dated 2020).

Where two headings read alike, the source gives them in different places.

For this test, the target named is T1, human C-terminal DNMT3A (623-908a.a.) (Homo sapiens, UniProt Q9Y6K1).
T1 construct: The human C-terminal DNMT3A (623-908a.a.); made in house
The experiment in a line: hDNMT3A assay (restriction-based fluorescence assay). To be noted: for inhibition at 10 µM: read-out: hDNMT 3A inhibition, Inhibition (%) 10 μM; for inhibition at 32 µM: read-out: hDNMT 3A inhibition, Inhibition (%) 32 μM. In kind it is biochemical. The source says: hDNMT3A enzyme inhibition was adapted from the restriction-based fluorescence assay protocol as described in the literature (Ceccaldi et al. Chem Bio Chem 2011, 12, 1337-1345). Briefly, a 5′-labelled biotin oligonucleotide is hybridized to its complementary strand labelled with 6-carboxyfluorescein at the 3′-end into a 384 well microplate (black Optiplates; Perkin Elmer) pre-coated with avidin. The duplex contains a unique CpG site overlapping with a restriction site of a methylation sensitive restriction enzyme. The human C-terminal DNMT3A (623-908a.a.), produced as described in (Gros et al. Nucl. Acids Res. 2013, 41(19):e185), was added in each well (200 ng/well) and mixed with the chemical compounds at desired concentrations and freshly prepared SAM (20 μM final concentration) to start the reaction in a total volume of 50 μL. After 1 hour incubation at 37° C. each well were washed three times with PBS, Tween-20 0.05%, NaCl (500 mM) and three more times with PBST. Specific fluorescent signals were detected with the methylation-sensitive restriction enzyme HpyCH4IV (NEB) as described and measured on a Perkin Elmer Envision detector. The percentage of inhibition is reported. The formula used to calculate the percentage of inhibition is [(X−Y)/X]×100, where X is the signal determined in the absence of the inhibitor and Y is the signal obtained in the presence of the inhibitor. The concentration at which 50% of efficacy of inhibition is observed (EC50) was determined by analysis of a concentration range of the tested compound in triplicates. The non-linear regression fittings with sigmoidal dose-response (variable slope) were performed with GraphPad Prism 4.03 (GraphPad Software).

Setting [1] is: concentration at which 50% of efficacy of inhibition is observed, read-out: EC50 (μM), hDNMT 3A inhibition.

T1 sequence (Q9Y6K1 627-912 limits assumed): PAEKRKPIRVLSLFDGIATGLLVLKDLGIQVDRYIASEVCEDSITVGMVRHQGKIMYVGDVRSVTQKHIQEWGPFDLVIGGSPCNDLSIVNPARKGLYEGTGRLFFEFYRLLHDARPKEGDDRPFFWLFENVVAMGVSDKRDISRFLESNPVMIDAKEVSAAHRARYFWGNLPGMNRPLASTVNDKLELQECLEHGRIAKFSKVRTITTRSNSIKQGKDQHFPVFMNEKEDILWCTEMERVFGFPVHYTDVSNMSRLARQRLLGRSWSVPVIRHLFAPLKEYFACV

One may read the inhibition as the share of the control response that was lost under treatment. Regarding `COc1ccc2cc1Oc1ccc(cc1)C[C@H]1c3c(cc(OC)c4c3Oc3cc5c(cc3O4)CCN(C)[C@H]5C2)CCN1C#N` [Product 15], the inhibition at 10 µM came to 46% and the inhibition at 32 µM was found to be 50%.

`CNC(=O)N1CCc2cc(OC)c3c4c2[C@@H]1Cc1ccc(cc1)Oc1cc(ccc1OC)C[C@@H]1NCCc2cc(c(cc21)O4)O3` [Product 51]: the inhibition at 10 µM came to 2% and the inhibition at 32 µM stood at 69%.

As to `COc1ccc2cc1Oc1ccc(cc1)C[C@H]1c3c(cc(OC)c4c3Oc3cc5c(cc3O4)CCN(C)[C@H]5C2)CCN1CCCCn1cnc2c(N)ncnc21` [Product 27], the inhibition at 10 µM is 21% and the inhibition at 32 µM turned out to be 67%.

As for `COc1ccc2cc1Oc1ccc(cc1)C[C@H]1c3c(cc(OC)c4c3Oc3cc5c(cc3O4)CCN(C)[C@H]5C2)CCN1CCC#N` [Product 16], the inhibition at 10 µM turned out to be 56% and the inhibition at 32 µM stood at 77%.

Broadly, the EC50 is the concentration at which the effect is half-maximal. `CCN(CC)CCCNC(=O)N1CCc2cc3c4cc2[C@@H]1Cc1ccc(OC)c(c1)Oc1ccc(cc1)C[C@H]1c2c(cc(OC)c(c2O4)O3)CCN1C` [Product 50]: the inhibition at 10 µM came to 69% and the inhibition at 32 µM was 91%. Moreover, the EC50 under setting [1] amounted to 2.06 µM. Besides, where the note is “interval line below the EC50 of the same compound, read-out: EC50 (μM), range given”, the EC50 was in the range of 1.28 to 3.31 µM.

As to `COc1ccc2cc1Oc1ccc(cc1)C[C@H]1c3c(cc(OC)c4c3Oc3cc5c(cc3O4)CCN(C)[C@H]5C2)CCN1S(C)(=O)=O` [Product 13], the inhibition at 10 µM came out at 39% and the inhibition at 32 µM is 45%.

Turning to `COc1ccc2cc1Oc1ccc(cc1)CC1c3c(cc(OC)c4c3Oc3cc5c(cc3O4)CCN(C)[C@H]5C2)CCN1C(=O)CCCl` (some centres unmarked) [Product 32], the inhibition at 10 µM amounted to 57% and the inhibition at 32 µM was 82%. For the same compound, the EC50 under setting [1] fell in the range of 5.34 to 6.87 µM.

With `CNC(=S)N1CCc2cc3c4cc2[C@@H]1Cc1ccc(OC)c(c1)Oc1ccc(cc1)C[C@H]1c2c(cc(OC)c(c2O4)O3)CCN1C` [Product 46], the inhibition at 10 µM was 7% and the inhibition at 32 µM turned out to be 52%.

For `COc1ccc2cc1Oc1ccc(cc1)C[C@H]1c3c(cc(OC)c4c3Oc3cc5c(cc3O4)CCN(C)[C@H]5C2)CCN1CCCn1cnc2c(N)ncnc21` [Product 28], the inhibition at 10 µM amounted to 18% and the inhibition at 32 µM stood at 60%.

For `COc1ccc2cc1Oc1ccc(cc1)C[C@H]1c3c(cc(OC)c4c3Oc3cc5c(cc3O4)CCN(C)[C@H]5C2)CCN1C(=O)OCCCn1cnc2c(N)ncnc21` [Product 19], the inhibition at 10 µM was found to be 67% and the inhibition at 32 µM came to 71%.

On to `COc1ccc2cc1Oc1ccc(cc1)C[C@H]1c3c(cc(OC)c4c3Oc3cc5c(cc3O4)CCN(CC#N)[C@H]5C2)CCN1CC#N` [Product 21], for which the inhibition at 10 µM was 32% and the inhibition at 32 µM turned out to be 82%.

Turning to `COc1ccc2cc1Oc1ccc(cc1)C[C@H]1c3c(cc(OC)c4c3Oc3cc5c(cc3O4)CCN(CCC#N)[C@H]5C2)CCN1C` [Product 22], the inhibition at 10 µM worked out at 60% and the inhibition at 32 µM turned out to be 64%.

With `COc1ccc2cc1Oc1ccc(cc1)C[C@H]1c3c(cc(OC)c4c3Oc3cc5c(cc3O4)CCN(C)[C@H]5C2)CCN1C(=O)OCCCCn1cnc2c(N)ncnc21` [Product 18], the inhibition at 10 µM stood at 66% and the inhibition at 32 µM is 66%.

With `COc1ccc2cc1Oc1ccc(cc1)C[C@H]1c3c(cc(OC)c4c3Oc3cc5c(cc3O4)CCN(CCCn3cnc4c(N)ncnc43)[C@H]5C2)CCN1C` [Product 24], the inhibition at 10 µM worked out at 42% and the inhibition at 32 µM is 77%.

In the case of `COc1ccc2cc1Oc1ccc(cc1)C[C@H]1c3c(cc(OC)c4c3Oc3cc5c(cc3O4)CCN(C)[C@H]5C2)CCN1C(N)=O` [Product 11], the inhibition at 10 µM was 43% and the inhibition at 32 µM was determined as 77%.

Take `COc1ccc2cc1Oc1ccc(cc1)CC1c3c(cc(OC)c4c3Oc3cc5c(cc3O4)CCN(C)[C@H]5C2)CCN1C=O` (some centres unmarked) [Product 10]: the inhibition at 10 µM is 17% and the inhibition at 32 µM turned out to be 72%.
